# Measurements as given in patent publication US5484778A, “Phthalocyanine photosensitizers for photodynamic therapy and methods for their use” (priority 1993, dated 1996).
# “Also recorded” adds a separate entry of the source.
# Assays:
# [1] = test system: Chinese hamster V79-379 cells; experiment: Clonogenic cell survival / photocytotoxicity in V79 cells (Table 1, FIG. 1, FIG. 2); assay type: cell-based; conditions: for CF10 (AlPcCl)/CF10 (Pc) / F10 (AlPcCl)/F10 (Pc): 18 h; for photosensitizing efficiency / photocytotoxicity (in words): V79 cells, red light
# How it was run: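 V79-379 Chinese hamster lung fibroblasts were loaded with phthalocyanine (0.5-1.0 μM final) for 18 hours, then irradiated in HBSS with >600 nm red light at approximately 0.074 kJ/m^2/s. Survival was scored by colony formation (≥50 cells, 7-10 days), giving F10 and the uptake-adjusted CF10 (intracellular concentration × fluence) relative to 1 μM AlPcCl.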
# [2] = test system: chemically-induced benign skin papillomas; experiment: PDT of chemically induced skin tumors in SENCAR mice (FIG. 4); assay type: in vivo; conditions: 0.5 and 1.0 mg/kg i.p. in DPPC liposomes
# Procedure: 6-week-old female SENCAR mice received a single topical application of 5 μg DMBA in 0.2 ml acetone on the dorsal skin as tumor initiator. One week later, the animals were started on twice-weekly topical applications of 1 μg TPA in 0.2 ml acetone as tumor promoter. All of the animals developed tumors at 12 weeks. Mice that developed 4-5 tumors per animal averaging 5-8 mm in diameter and 2-5 mm in thickness were used. Pc IV, entrapped in DPPC liposomes was administered intraperitoneally at doses of either 0.5 or 1.0 mg/kg and 24 hrs later the tumor area was illuminated with light from an argon pumped dye laser tuned at 675 nm for a total light dose of 135 J/cm^2 (75 mW/cm^2). All possible controls were included; either the animals were untreated, treated only with laser light or treated only with Pc IV alone.
# [3] = test system: RIF-1 tumors; experiment: Histology and DNA fragmentation in PDT-treated tumors; assay type: in vivo, C3H/HeN mice
# [4] = test system: Chinese hamster V79-379 cells; experiment: Growth delay of V79 cultures after red light (Table 1); assay type: cell-based
# How it was run: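 V79-379 lung fibroblasts were pretreated 18 h with phthalocyanines (0.5-1.0 μM final) or 1 μM AlPcCl, then irradiated in HBSS with >600 nm light at 12 kJ/m^2. Cells were counted over 3 days. Growth delay is the time for cell density to regain its level at irradiation, reported as a ratio to same-experiment AlPcCl.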
# [5] = test system: Chinese hamster V79-379 cells; experiment: Uptake of phthalocyanines by V79 cells relative to AlPcCl (Table 1); assay type: cell-based; conditions: for Uptake, efficiency relative to 1 μM AlPcCl: 18 h
# Procedure: Chinese hamster V79-379 lung fibroblasts were grown in monolayer culture in McCoy's 5A medium (Gibco Laboratories, Grand Island, N.Y.) augmented with 10% calf serum and buffered with 20 mM HEPES (pH 7.4).
# Total uptake was determined by scraping the phthalocyanine-treated monolayer, collecting the cells on a glass-fiber filter, and extracting the phthalocyanine in ethanol, as previously described by Ramakrishnan, et al., 1989. (Ramakrishnan, N., M. E. Clay, M. F. Horng, A. R. Antunez, & H. H. Evans, "DNA Lesions and DNA Degradation in Mouse Lymphoma L5178Y Cells After Photodynamic Treatment Sensitized by Chloroaluminum Phthalocyanine",Photochem. Photobiol, in press, 1989). The amount of drug was determined by absorption at 674 nm and expressed relative to the number of cells, as measured in a Coulter cell counter on an aliquot of the cell population. Controls included cells not treated with drug, medium alone, and drug-containing medium without cells. The results of the total uptake of the various compositions of the present invention in comparison to AlPcCl are set forth below in Table 1.
# The cells were treated with 1 μM AlPcCl (from Eastman Kodak, Rochester, N.Y.) or with phthalocyanine compositions I-VI (0.5-1.0 μM final concentration in the medium) for 18 hours by adding the appropriate volume of a 1.0 mM stock solution in dimethylformamide (DMF) to the culture medium. The growth medium was replaced with 4 ml Hank's balanced salt solution (HBSS), and the cells were irradiated. The light source was a 500 W tungsten-halogen lamp located approximately 29 inches below the surface of a glass exposure tray. The visible light administered to the cells was filtered to allow passage of only that portion of the visible spectrum above 600 nm (Lee Primary red filter No. 106, Vincent Lighting, Cleveland, Ohio). The fluence rate was approximately 0.074 kJ/m^2 /s at the level of the cell monolayer.
# All of the compounds have been examined for the extent of cellular uptake after exposure of V79 cells to 1 μM or less in complete medium, and the data of Table 1 are presented relative to the uptake from 1 μM AlPcCl, which was 0.723±0.172 nmole/10^7 cells (mean ±S. D., 25 determinations). […] In particular, when the concentration of Compound IV was 1 μM in the medium, the uptake into the cells was sufficiently high that some of the uptake and phototoxicity studies were repeated at 0.5 μM.
smiles,measurement,setting,value
"CN(C)CCC[Si](C)(C)O[Si]1(O)n2c3c4ccccc4c2N=C2N=C(N=c4c5ccccc5c(n41)=NC1=NC(=N3)c3ccccc31)c1ccccc12 (stereo not drawn) [Compound IV, HOSiPcOsi(CH3)2)(CH2)3 N(CH3)2]",CF10 (AlPcCl)/CF10 (Pc),[1]; 0.5 μM,3.9
same,F10 (AlPcCl)/F10 (Pc),[1]; 0.5 μM,1.85
same,CF10 (AlPcCl)/CF10 (Pc),"[1]; 1.0 μM, CF10 = intracellular concentration x fluence reducing survival to 10%",3.5
same,F10 (AlPcCl)/F10 (Pc),"[1]; 1.0 μM, F10 = fluence reducing survival to 10%",4.25
same,photosensitizing efficiency / photocytotoxicity (in words),[1],almost twice as efficient as the standard AlPcCl; also recorded: most efficient photosensitizer
same,photosensitizing efficiency / photocytotoxicity (in words),[1]; listed as SiPc(OH)(OSi(CH3)2 (CH2)3 N(CH3)2),"most efficient photosensitizer, as judged by uptake, growth delay, and photocytotoxicity"
same,tumor volume (eventual),"[2]; 675 nm, 135 J/cm^2",0
same,tumor recurrence,[2]; 34 days,"did not return for the length of the study, 34 days"
same,apoptotic bodies in the tumor,[3]; histological examination,presence of apoptotic bodies in the tumor
same,"DNA fragment sizes, multiples of","[3]; mouse, in vivo",180-200 base pairs
same,"Growth Delay, efficiency relative to 1 μM AlPcCl","[4]; 0.5 μM, 18 h, 12 kJ/m^2 red light",> 3
same,inhibition of V79 culture growth (in words),"[4]; red light 12 kJ/m^2, three day period",substantial inhibition
same,"Uptake, efficiency relative to 1 μM AlPcCl",[5]; 0.5 μM,1.3
same,"Uptake, efficiency relative to 1 μM AlPcCl",[5]; 1.0 μM,1.64
same,cellular uptake (in words),"[5]; V79 cells, 1 μM or less, compared with AlPcCl",taken up into the cells more efficiently than was AlPcCl
